Target: T1, rubredoxin (RD), in polyprotein (RD-GB1)n (Pyrococcus furiosus, UniProt P24297)
T1 construct: gene rub; full-length ferric (FeS4) rubredoxin fused to GB1 fingerprint domain, His-tag purified from E. coli DH5alpha, linked by BM(PEO)3 thiol-maleimide coupling into (RD-GB1)n
T1 sequence (P24297 2-54): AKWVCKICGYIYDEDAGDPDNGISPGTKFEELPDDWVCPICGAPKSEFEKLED
Assay: single-molecule AFM force clamp, FeS4 rupture rate against [KSCN]
Assay type: binding
Details: pH 7.4, 100 mM Tris and NaCl, KSCN 5-800 mM; ferric-thiolate bond rupture rate extrapolated to zero force (Bell-Evans); FeS4 centre exposed by force-induced partial unfolding; not an affinity

Structure (SMILES): N#CS [SCN^−]
- k (second-order rate constant of ligand substitution): 0.36 M⁻¹ s⁻¹
